pIC50: −log10 of the molar value.
Legend:
[1] = tested on: AR 1.0 cells; experiment: Potentiation index with doxorubicin titration; type: cell-based, mouse; conditions: for Potentiation Index at RMA concentration 30 nM: Table C2, RMA 30 nM; for Potentiation Index at RMA concentration 100 nM: Table C2, RMA 100 nM; for Potentiation Index at RMA concentration 300 nM: Table C2, RMA 300 nM; for Potentiation Index at RMA concentration 500 nM: Table C2, RMA 500 nM; for Potentiation Index at RMA concentration 10 nM: Table C2, RMA 10 nM
How it was run: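 MDR-resistant mouse EMT6 subline AR 1.0 grown four days with a doxorubicin titration (0.263 nM-17.24 μM) plus a fixed compound concentration; proliferation by sulphorhodamine B. Potentiation index derived from doxorubicin IC50 alone versus with compound.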

[2] = tested on: AR 1.0 cells; experiment: Potentiation of doxorubicin toxicity: proliferation assay (sulphorhodamine B); type: cell-based, mouse
Excerpt: (a) Selected compounds of formula (I) were examined for their ability to potentiate the toxicity of doxorubicin in AR 1.0 cells.

[3] = tested on: AR 1.0 cells; experiment: Drug accumulation assay: daunorubicin accumulation in AR 1.0 cells; type: cell-based; conditions: Mus musculus, 100% = accumulation with verapamil 100 μM, 1 hr, 37° C.
How it was run: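 AR 1.0 is the MDR-resistant subline of EMT6 mouse mammary carcinoma, grown in RPMI 1640 with 10% foetal calf serum and 2 mM glutamine at 37 °C, 5% CO2. Cells were seeded 48 h before the daunorubicin accumulation assay.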

[4] = Mus musculus, 96 h, compound alone, four day proliferation, read-out: Compound Toxicity (IC50)
[5] = with fixed doxorubicin 0.34 μm, four days, 5760 min, read-out: Toxicity with Cytotoxic Agent (IC50)

Row | Compound | Potentiation Index at RMA concentration 30 nM [1] | Potentiation Index at RMA concentration 100 nM [1] | Potentiation Index at RMA concentration 300 nM [1] | Potentiation Index at RMA concentration 500 nM [1] | pIC50 [2, 4] | pIC50 [2, 5] | pIC50 [3] | Potentiation Index at RMA concentration 10 nM [1]
1 | COc1cc2c(cc1OC)CN(CCc1ccc(NC(=O)c3ccccc3NC(=O)c3ccc(Cl)cc3)cc1)CC2 [compound 9496, 2-(4-chloro-benzoylamino)-N-{4-[2-(6,7-dimethoxy-3,4-dihydro-1H-isoquinolin-2-yl)-ethyl]-phenyl}-benzamide] | 1.6 | 19 | 254 | 825 | 5.40 | 7.52 | 6.32 | –
2 | COc1cc2c(cc1OC)CN(CCCc1ccc(NC(=O)c3ccccc3NC(=O)c3cnc4ccccc4n3)cc1)CC2 [compound 9567, Quinoxaline-2-carboxyXic acid (2-{4-[3-(6,7-dimethoxy-3,4-dihydro-1H-isoquinolin-2-yl)-propyl]-phenylcarbamoyl}-phenyl)-amide] | 8 | 112 | – | – | 5.77 | 7.55 | 6.80 | 1.7
3 | COc1cc2c(cc1OC)CN(CCc1ccc(NC(=O)c3ccccc3NC(=O)c3ccc(Cl)c(Cl)c3)cc1)CC2 [compound 9536, 2-(3,4-Dichloro-benzoylamino)-N-{4-[2-(6,7-dimethoxy-3,4-dihydro-1H-isoquinolin-2-yl)-ethyl]-phenyl}-benzamide] | – | 32 | 128 | – | 5.58 | 7.82 | 6.35 | –
4 | COc1cc2c(cc1OC)CN(CCc1ccc(NC(=O)c3ccc(C)cc3NC(=O)c3cnc4ccccc4c3)cc1)CC2 [compound 9588, Quinoline-3-carboxylic acid (2-{4-[2-(6,7-dimethoxy-3,4-dihydro-1H-isoquinolin-2-yl)-ethyl]-phenylcarbamoyl}-5-methyl-phenyl)-amide] | 68 | – | – | – | 5.17 | – | 7.03 | 6
5 | COc1cc2c(cc1OC)CN(CCc1ccc(NC(=O)c3ccccc3NC(=O)c3cc4ccccc4o3)cc1)CC2 [compound 9539, Benzofuran-2-carboxylic acid (2-{4-[2-(6,7-dimethoxy-3,4-dihydro-1H-isoquinolin-2-yl)-ethyl]-phenylcarbamoyl}-phenyl)-amide] | – | 32 | 128 | – | 5.77 | 7.96 | 6.66 | –
6 | COc1cc2c(cc1OC)CN(CCNC(=O)c1ccccc1NC(=O)c1ccc(C(C)C)cc1)CC2 [compound 9304, 2-(4-Isopropyl-benzoylamino)-N-[2-(6,7-dimethoxy-3,4-dihydro-1H-isoquinolin02-yl)-ethyl]-benzamide] | – | – | – | 30 | 5.10 | 6.82 | 5.92 | –
7 | COc1cc2c(cc1OC)CN(CCc1ccc(NC(=O)c3ccccc3NC(=O)c3cnc4ccccc4n3)cc1)CC2 [compound 9531, Quinoxaline-2-carboxylic. acid (2-{4-[2-(6,7-dimethoxy-3,4-dihydro-1H-isoquinolin-2-yl)-ethyl]-phenylcarbamoyl}-phenyl)-amide] | 120 | 150 | 160 | – | 5.96 | 8.30 | 7.46 | 30
8 | COc1cc2c(cc1OC)CN(CCc1ccc(NC(=O)c3ccccc3NC(=O)c3cnc(C)cn3)cc1)CC2 [compound 9527, 5-Methyl-pyrazine-2-carboxylic acid (2-{4-[2-(6,7-dimethoxy-3,4-dihydro-1H-isoquinolin-2-yl)-ethyl]-phenylcarbamoyl}-phenyl)-amide] | 11 | 50 | 103 | 120 | 5.35 | 8.15 | 7.28 | 1.5
9 | COc1cc2c(cc1OC)CN(Cc1ccc(NC(=O)c3ccccc3NC(=O)c3cnc4ccccc4n3)cc1)CC2 [compound 9572, Quinoxaline-2-carboxylic acid {2-[4-(6,7-dimethoxy-3,4-dihydro-1H-isoquinolin-2-ylmethyl)-phenylcarbamoyl}-phenyl}-amide] | 25 | 83 | – | – | 5.77 | 7.85 | 7.28 | 2.7
10 | COc1cc2c(cc1OC)CN(CCc1ccc(NC(=O)c3ccc(Cl)cc3NC(=O)c3cnc4ccccc4c3)cc1)CC2 [compound 9586, Quinoline-3-carboxylic acid (2-{4-[2-(6,7-dimethoxy-3,4-dihydro-1H-isoquinolin-2-yl)-ethyl]-phenylcarbamoyl}-5-chloro-phenyl)-amide] | 6 | – | – | – | 5.13 | – | 6.74 | 5
11 | COc1cc2c(cc1OC)CN(CCc1ccc(NC(=O)c3ccccc3NC(=O)c3ccc(F)cc3)cc1)CC2 [compound 9501, 2-(4-Fluoro-benzoylamino)-N-{4-[2-(6,7-dimethoxy-3,4-dihydro-1H-isoquinolin-2-yl)-ethyl]-phenyl}-benzamide] | 1.9 | 69 | 183 | – | 5.52 | 7.40 | 6.92 | –
12 | CCCCCc1ccc(C(=O)Nc2ccccc2C(=O)NCCN2CCc3cc(OC)c(OC)cc3C2)cc1 [compound 9395, 2-(4-Pentyl-benzoylamino)-N-[2-(6,7-dimethoxy-3,4-dihydro-1H-isoquinolin-2-yl)-ethyl]-benzamide] | – | – | – | 21 | 5.05 | 6.82 | 5.89 | –
13 | COc1cc2c(cc1OC)CN(CCNC(=O)c1ccccc1NC(=O)c1ccc(OC3CCCCC3)cc1)CC2 [compound 9459, 2-(4-Cyclohexyloxy-benzoylamino)-N-[2-(6,7-dimethoxy-3,4-dihydro-1H-isoquinolin-2-yl)-ethyl]-benzamide] | – | – | 45 | 112 | 5.07 | 7.05 | 6.19 | –
14 | COc1cc2c(cc1OC)CN(CCNC(=O)c1cc(Br)ccc1NC(=O)c1ccc(C(C)C)cc1)CC2 [compound 9394, 2-(4-Isopropyl-benzoylamino)-N-[2-(6,7-dimethoxy-3,4-dihydro-1H-isoquinolin-2-yl)-ethyl]-5-bromo-benzamide] | – | – | – | 12 | 5.00 | – | 5.47 | –
15 | COc1cc2c(cc1OC)CN(CCc1ccc(NC(=O)c3ccc(F)cc3NC(=O)c3cnc4ccccc4c3)cc1)CC2 [compound 9571, Quinoline-3-carboxylic acid (2-{4-[2-(6,7-dimethoxy-3,4-dihydro-1H-isoquinolin-2-yl)-ethyl]-phenylcarbamoyl}-5-fluoro-phenyl)-amide] | 100 | 100 | – | – | 5.70 | 9.10 | 7.66 | 38
16 | COc1cc2c(cc1OC)CN(CCc1ccc(NC(=O)c3ccccc3NC(=O)c3ccc(C)c(C)c3)cc1)CC2 [compound 9538, 2-(3,4-Dimethyl-benzoylamino)-N-{4-[2-(6,7-dimethoxy-3,4-dihydro-1H-isoquinolin-2-yl)-ethyl]-phenyl}-benzamide] | – | 43 | 128 | – | 5.64 | 7.85 | 6.66 | –
17 | COc1cc2c(cc1OC)CN(CCc1ccc(NC(=O)c3ccccc3NC(=O)c3ccncc3)cc1)CC2 [compound 9483, N-(2-{4-[2-(6,7-Dimethoxy-3,4-dihydro-1H-isoquinolin-2-yl)-ethyl]-phenylcarbamoyl}-phenyl}-isonicotinamide] | – | – | 14 | 24 | 5.07 | 6.46 | 5.77 | –

Source: US6218393A, “Anthranilic acid derivatives as multi drug resistance modulators” (priority 1997, dated 2001)
